Results reported in patent US8470525B2, “Method for analyzing air” (priority 2011, dated 2013).

How the values were obtained:
Assay type in all cases: biochemical
[1] = biological target: T1, acetylcholinesterase enzyme (Homo sapiens, UniProt P22303); assay: Enzyme-based air monitoring device: detection of cholinesterase inhibitor in air by loss of acetylcholinesterase/indoxyl acetate fluorescence signal; conditions: Example 4, FIG. 8: aerosol from 2.5 ppm paraoxon solution; 4 minute cycles; polyethylene disk 15-45 um; clean-air cycle around 14,000
T1 sequence (P22303 32-614, species assumed): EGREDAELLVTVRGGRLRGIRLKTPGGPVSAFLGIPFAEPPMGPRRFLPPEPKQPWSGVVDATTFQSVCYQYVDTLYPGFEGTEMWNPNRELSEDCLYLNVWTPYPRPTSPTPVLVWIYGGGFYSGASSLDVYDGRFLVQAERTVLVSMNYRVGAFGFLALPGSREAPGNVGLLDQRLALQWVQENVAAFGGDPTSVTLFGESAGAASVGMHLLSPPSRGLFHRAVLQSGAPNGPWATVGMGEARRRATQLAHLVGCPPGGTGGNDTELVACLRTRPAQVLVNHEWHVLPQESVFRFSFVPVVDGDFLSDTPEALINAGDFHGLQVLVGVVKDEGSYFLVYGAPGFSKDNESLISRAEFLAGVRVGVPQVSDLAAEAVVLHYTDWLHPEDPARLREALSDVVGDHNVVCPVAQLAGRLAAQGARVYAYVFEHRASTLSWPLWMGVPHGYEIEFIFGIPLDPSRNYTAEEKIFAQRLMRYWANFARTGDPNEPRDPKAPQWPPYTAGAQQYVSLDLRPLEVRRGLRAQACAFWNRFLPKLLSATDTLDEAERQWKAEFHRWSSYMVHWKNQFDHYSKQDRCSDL
Method: In this embodiment of the invention, the device and method operates in repetitive cycles ranging from 30 seconds to 10 minutes. […] The cycle shown in FIG. 2 took 5 minutes for completion. The enzyme and substrate addition took 5 seconds, the sampling time took 115 seconds, the reading took 85 seconds and was concluded by the alarm status update at the end which requires only a fraction of a second, and the rinse took 90 seconds. Each cycle concludes with the rinse step where components of the reaction are rinsed off the surface of the collection matrix and preferably from the reaction zone and the surface of the collection matrix, in order to set the stage for a new sampling cycle.
FIGS. 3a and 3b illustrate the steps of one 5 minute cycle with no detection event in more detail. […] Particles, aerosols and vapor from the environment are collected on the impactor disk or surface of the collection matrix. During this step one nebulizer is activated adding aerosolized enzyme visualized in FIGS. 3a and 3b by clam shaped symbols. The enzyme is being accumulated on the impactor disk/surface of the collection matrix. […] During the next step 4) 85 seconds reading, the catalytic reaction of the enzyme substrate complex is monitored with an optical system. […] During the reading period, the air sampling pump is typically switched off. […]

[2] = Air monitoring device: detection of aerosolized enzyme protein by fluorescence from indoxyl acetate substrate; conditions: Example 6, FIG. 10: enzyme solution 3 mg/ml aerosolized; 3 minute cycles; cycles four, five and six; clean air amplitude 0
Method: Example 6 provides a method of this invention for the detection of a protein in the air. The device in this example was operated continuously in 3 minute cycles. Each cycle consists of a 30 second sampling period at a flow rate of 1 liter per minute, a 5 second substrate addition step, a 85 second reading period and a 60 second rinse step. The consumables/reagents consisted of a) 12.5 mg/ml indoxyl acetate substrate solution in isopropyl alcohol (IPA), diluted in buffer 100 fold and b) 100 mM buffer at pH 7.0. This example used a polyethylene disk with a pore size of 15-45 um and a thickness of 1.6 mm as the impactor disk. The substrate aerosol was generated using 5×500 ms pulses every second for 5 seconds total. The rinse step at conclusion of the cycle was accomplished by continuously aerosolizing buffer for about 60 seconds.
Specifically, acetylcholinesterase enzyme solution was aerosolized into a plastic test chamber at a concentration of 3 mg/ml. The sampled air was contaminated with enzyme two times at intervals indicated by solid triangles (beginning) and white triangles (end). As set forth in FIG. 10, the device indicated the presence of the target protein by an amplitude increase to at least 2,000 fluorescent units in cycles four, five and six compared to an amplitude of 0 in cycles one, two and three during the time clean air was sampled.

[3] = biological target: T1, acetylcholinesterase enzyme; assay: Air monitoring device: detection of aerosolized enzymatic substrate by fluorescence after enzyme addition; conditions: Example 7, FIG. 11: indoxyl acetate solution 0.1 mg/ml aerosolized; 4 minute cycles; cycles three and four; clean air amplitude 500
Method: Example 7 provides a method of this invention to detect other chemicals in the air. The device in this example was operated continuously in 4 minute cycles. Each cycle consists of a 2 minute second sampling period at a flow rate of 1 liter per minute, 5 second enzyme addition step, a 85 second reading period and a 30 second rinse step. The consumables/reagents consisted of a) 3 mg/ml acetylcholinesterase enzyme solution in buffer and b) 100 mM buffer at pH 7.0. This example used a polyethylene disk with a pore size of 15-45 um and a thickness of 1.6 mm as the impactor disk. The enzyme aerosol was generated using 5×500 ms pulses every second for 5 seconds total. The rinse step at conclusion of the cycle was accomplished by continuously aerosolizing buffer for about 30 seconds.
Specifically, indoxyl acetate solution was aerosolized into a plastic test chamber at a concentration of 0.1 mg/ml. […] The device indicated the presence of the target protein by an amplitude increase to at least 3,000 fluorescent units in cycles three and four compared to an amplitude of 500 in cycles one and two during the time clean air was sampled.

CCOP(=O)(OCC)Oc1ccc([N+](=O)[O-])cc1 [paraoxon]
signal amplitude [1]: around 4,000 fluorescent units

acetylcholinesterase
amplitude increase [2]: at least 2,000 fluorescent units

indoxyl acetate
amplitude increase [3]: at least 3,000 fluorescent units
